# Experiments:
# U87MG cells [1] = assay: Radioactivity concentration of labeled compounds in tumor, U87MG subcutaneous transplantation; assay type: in vivo, mice (Balb/c AJcl-nu/nu); details: caudal vein, 111In 740 kBq, 64Cu and 90Y 500 kBq
# Procedure: Test Example 3 Evaluation based on radioactivity concentration of ^111In-labeled compound, ^64Cu-labeled compound, and ^90Y-labeled compound in tumor
# After 2 to 3 weeks, at a point in time when the tumor volume became 200 to 500 mm^3, 3 mice were sorted into one group at each point in time. The ^111In-labeled compound (740 k Bq) was administered into the caudal vein, the animals were sacrificed after a certain period of time, and the tumor was extracted. The weight of the tumor was measured, the radioactivity was measured using a gamma counter, and the radioactivity concentration in tumor (% ID/g) was calculated. For the ^64Cu-labeled compound (500 k Bq) and the ^90Y-labeled compound (500 k Bq), the radioactivity concentration in tumor (% ID/g) was calculated by the same method.
# U87MG cells [2] = assay: Imaging of integrin expression tumor by PET; assay type: in vivo, mice (Balb/c AJcl-nu/nu); details: 48 hours after administration, 4.8 MBq/mouse caudal vein
# Procedure: Test Example 4 Imaging of Integrin Expression Tumor by Positron Emission Tomography (PET) Using [^64Cu]-(Compound A) and [^64Cu]-(Compound B)
# After 2 weeks, [^64Cu]-(compound A) was administered at 4.8 MBq/mouse into the caudal vein of the mice with a tumor having a volume of […] to 650 mm^3. After 1, 4, 24, and 48 hours, the mice were imaged by microPET/CT (Inveon, Siemens Healthcare GmbH) under isoflurane anesthesia. […], whole blood was collected from the postcava under deep isoflurane anesthesia, the animals were euthanised, and then the tumor was extracted. The weight of the tumor was measured, the radioactivity was measured using a gamma counter, and the radioactivity concentration in tumor (% ID/g) was calculated. For [^64Cu]-(compound B), imaging was performed by the same method.
# FIGS. 1 and 2 show PET images relating to each compound captured at each point in time. […] As a result, a hematoma matching with the image was found in the central portion. At the time of dissection (48 hours after administration), the radioactivity concentration in tumor was 5.6% ID/g.
# [3] = Absorbed dose in a human being simulated with OLINDA/EXM 1.0 from monkey organ distribution
# Procedure: Blood was collected from a crab-eating macaque over time, and by using [^111In]-(compound A), from the radioactivity concentration in the blood, kinetic parameters of the compound in blood were calculated by OLINDA/EXM 1.0. Furthermore, by using [^111In]-(compound A), from the organ distribution obtained by imaging, the absorbed dose of each organ obtained in a case where the compound is administered to a human being was calculated using OLINDA/EXM 1.0. [^111In]-(compound A) (98 MBq/9.3 μg) was administered to a crab-eating macaque (Hamri Co., Ltd., males, 3-year-old, 3.4 kg) under anesthesia. After the administration, blood was collected over time, and imaging was performed using a gamma camera. The blood was collected 10, 30, and 60 minutes after the administration and 2, 4, 5, 6, 24, 48, 72, and 144 hours after the administration. Regarding the imaging, after 1, 2, 4, 6, 24, 48, 72, and 144 hours, planar imaging was performed using a gamma camera (Symbia, Siemens Healthcare GmbH). Regarding the anesthesia, the animal was anesthetized with ketamine at 20 mg/kg before the administration of [^111In]-(compound A) and kept anesthetized until the end of imaging, which was continued for 6 hours after the administration, by inhalation anesthesia (isofluran 2 to 3%, 5 to 8 L/min). After 24 hours, ketamine (20 mg/kg) and xylazine (2 mg/kg) were administered to perform blood collection and imaging.
# Furthermore, by using exposure dose analysis software OLINDA/EXM 1.0, the absorbed dose in a human being was simulated using each of the labeled compounds, and the results are shown below.
# [4] = Radiochemical purity after standing at room temperature (reversed-phase TLC); assay type: physicochemical; details: 22 hours
# Procedure: A indium [^111In] chloride solution (80 MBq, 100 μL) was added to a mixture of the compound A (8.5 μg) and a 0.2 mol/L sodium acetate buffer solution (pH 4.0) (1.5 mL). The solution was heated to 100° C. for 15 minutes and then left to stand for 5 minutes at room temperature, thereby obtaining [^111In]-(compound A). […] The radiochemical purity measured immediately after the compound was prepared and measured after 24 hours at room temperature was equal to or higher than 95%.
# A yttrium [^90Y] chloride solution (700 MBq, 240 μL) was added to a mixture of the compound (79 μg), gentisic acid (1.8 mg), a 0.6 mol/L sodium acetate buffer solution (pH 4.0, 120 μL), and 0.4 mol/L aqueous sodium hydroxide solution (24 μL). The solution was heated to 100° C. for 20 minutes and then left to stand for 5 minutes at room temperature, thereby obtaining [90^Y]-(compound A). […] The radiochemical purity measured immediately after the compound was prepared and measured after 24 hours at room temperature was equal to or higher than 95%.
# A copper [^64Cu] chloride solution (pH 5, 35 MBq, 55 μL) was added to a mixture of the compound A (5.8 μg) and 0.2 mol/L sodium acetate buffer solution (pH 4.0, 219 μL). The solution was heated to 100° C. for 15 minutes and left to stand for 5 minute at room temperature, thereby obtaining [^64Cu]-(compound A). […] The radiochemical purity measured immediately after the compound was prepared and measured after 22 hours at room temperature was equal to or higher than 90%.
# A 0.2 mol/L sodium acetate buffer solution of Copper [^64Cu] chloride (pH 4.0) (40 MBq, 155 μL) was added to a mixture of the compound B (4.2 μg), gentisic acid (1 mg), and a 0.2 mol/L sodium acetate buffer solution (pH 4.0) (5.0 μL). The solution was heated to 100° C. for 15 minutes and left to stand for 5 minutes at room temperature, thereby obtaining [^64Cu]-(compound B). […] The radiochemical purity measured immediately after the compound was prepared and measured after 24 hours at room temperature was equal to or higher than 90%.
# A gallium [^67Ga] chloride solution (200 MBq, 63 μL) was added to a mixed solution of the compound A (21 μg), gentisic acid (1.0 mg), a 0.2 mol/L sodium acetate buffer solution (pH 4.0, 730.7 μL), and 4.5 mol/L aqueous sodium hydroxide solution (6.3 μL). The solution was heated to 100° C. for 15 minutes and then left to stand for 5 minutes at room temperature, thereby obtaining [^67Ga]-(compound A).
# A lutetium [^177Lu] chloride solution (666 MBq, 333 μL) dissolved in a 0.2 mol/L sodium acetate buffer solution (pH 4.0) was added to a mixed solution of the compound A (70.0 μg), gentisic acid (1.8 mg), and a 0.2 mol/L sodium acetate buffer solution (pH 4.0, 83.3 μL). The solution was heated to 100° C. for 15 minutes and then left to stand for 5 minutes at room temperature, thereby obtaining [^177Lu]-(compound A).
# A gallium [^67Ga] chloride solution (40 MBq, 11.7 μL) was added to a mixed solution of the compound B (4.1 μg), gentisic acid (1.0 mg), a 0.2 mol/L sodium acetate buffer solution (pH 4.5, 147.13 μL), and 4.5 mol/L aqueous sodium hydroxide solution (1.17 μL). The solution was heated to 100° C. for 15 minutes and then left to stand for 5 minutes at room temperature, thereby obtaining [^67Ga]-(compound B).
compound,measurement,setting,value
Cc1cc(OCCCC(=O)NCCNC(=O)C(CS(=O)(=O)O)NC(=O)CN2CCN(CC(=O)[O-])CCN(CC(=O)O)CCN(CC(=O)[O-])CC2)cc(C)c1S(=O)(=O)NC(CNC(=O)CCCCc1ccc2c(n1)NCCC2)C(=O)O.[64Cu+2] (centres unmarked) [[^64Cu]-(compound A)],Radioactivity concentration in tumor After 4 hours,U87MG cells [1]; 4 hours,9.25 % ID/g
same,Radioactivity concentration in tumor After 24 hours,U87MG cells [1]; 24 hours,8.48 % ID/g
same,radioactivity concentration in tumor at the time of dissection,U87MG cells [2],5.6 % ID/g
same,Absorbed dose Brain,[3],0.11 mGy/MBq
same,Absorbed dose Kidney,[3],0.69 mGy/MBq
same,Absorbed dose Liver,[3],0.09 mGy/MBq
same,Absorbed dose Lung,[3],0.08 mGy/MBq
same,Absorbed dose Red marrow,[3],0.01 mGy/MBq
same,Absorbed dose Small intestine,[3],0.06 mGy/MBq
same,Absorbed dose Whole body,[3],0.02 mGy/MBq
same,radiochemical purity immediately after preparation and after 22 hours at room temperature,[4],≥ 90%
